Laboratory results published in PubChem BioAssay AID256 (DTP/NCI, 2004).
Inconclusive results and toxic doses are left out. Rule for the calls: active = survival T/C of 150% or more; inactive = T/C below 125% in these data.

Tested on: CD2F1 mice, L1210 leukemia ip, survival T/C
Test: NCI In Vivo Anticancer Drug Screen. Data for tumor model L1210 Leukemia (intraperitoneal) in CD2F1 (CDF1) mice
Settings: endpoint: mean survival time, higher = longer survival
In short: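 Transplantable tumor in mice; compound-treated vs vehicle-treated groups. Read-out = treated/control ratio of the measured endpoint.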

[1] = dose: 50.0 mg/kg/injection, schedule: Q01DX009 (ip), vehicle: saline
[2] = dose: 100.0 mg/kg/injection, schedule: Q01DX009 (ip), vehicle: saline
[3] = dose: 200.0 mg/kg/injection, schedule: Q01DX009 (ip), vehicle: saline
[4] = dose: 100.0 mg/kg/injection, schedule: Q01DX009 (ip), vehicle: saline with Tween-80
[5] = dose: 100.0 mg/kg/injection, schedule: Q04DX003 (ip), vehicle: saline with Tween-80
[6] = dose: 200.0 mg/kg/injection, schedule: Q04DX003 (ip), vehicle: saline with Tween-80
[7] = dose: 400.0 mg/kg/injection, schedule: Q04DX003 (ip), vehicle: saline with Tween-80
[8] = dose: 200.0 mg/kg/injection, schedule: Q01DX009 (ip), vehicle: saline with Tween-80
[9] = dose: 400.0 mg/kg/injection, schedule: Q01DX009 (ip), vehicle: saline with Tween-80
[10] = dose: 100.0 mg/kg/injection, schedule: Q04DX002 (ip), vehicle: saline with Tween-80
[11] = dose: 200.0 mg/kg/injection, schedule: Q04DX002 (ip), vehicle: saline with Tween-80

Measured: T/C

COc1cc2ccc3c4cc5c(cc4c[n+](C)c3c2cc1OC)OCO5
inactive: dose: 10.0 mg/kg/injection, schedule: Q01DX009 (ip), vehicle: Klucel (hydroxypropylcellulose) (HPC) 119 % of control | dose: 20.0 mg/kg/injection, schedule: Q01DX009 (ip), vehicle: Klucel (hydroxypropylcellulose) (HPC) 119 % of control | dose: 40.0 mg/kg/injection, schedule: Q01DX009 (ip), vehicle: Klucel (hydroxypropylcellulose) (HPC) 121 % of control | dose: 80.0 mg/kg/injection, schedule: Q01DX009 (ip), vehicle: Klucel (hydroxypropylcellulose) (HPC) 115 % of control | dose: 160.0 mg/kg/injection, schedule: Q01DX009 (ip), vehicle: Klucel (hydroxypropylcellulose) (HPC) 97 % of control

CCOP(=O)(OCC)c1ccccc1
inactive: dose: 100.0 mg/kg/injection, schedule: Q04DX002 (ip), vehicle: saline 96 % of control | dose: 200.0 mg/kg/injection, schedule: Q04DX002 (ip), vehicle: saline 96 % of control | dose: 400.0 mg/kg/injection, schedule: Q04DX002 (ip), vehicle: saline 112 % of control

CN(C)N=Nc1ccc(S(N)(=O)=O)cc1
inactive: dose: 18.75 mg/kg/injection, schedule: Q01DX009 (ip), vehicle: Klucel (hydroxypropylcellulose) (HPC) 106 % of control | dose: 37.5 mg/kg/injection, schedule: Q01DX009 (ip), vehicle: Klucel (hydroxypropylcellulose) (HPC) 124 % of control | dose: 150.0 mg/kg/injection, schedule: Q01DX009 (ip), vehicle: Klucel (hydroxypropylcellulose) (HPC) 118 % of control

CC(=O)OC1CCC2(C)C(CCC3(C)C2CC=C2C4CC(C)(C)CCC4(C)CCC23C)C1(C)C (stereo not drawn)
inactive: dose: 100.0 mg/kg/injection, schedule: Q01DX001 (ip), vehicle: saline 101 % of control | dose: 200.0 mg/kg/injection, schedule: Q01DX001 (ip), vehicle: saline 101 % of control | dose: 400.0 mg/kg/injection, schedule: Q01DX001 (ip), vehicle: saline 101 % of control

CCCCN1C(=O)c2c(Cl)c(Cl)c(Cl)c(Cl)c2C1=O
inactive: dose: 25.0 mg/kg/injection, schedule: Q04DX002 (ip), vehicle: other 90 % of control | dose: 50.0 mg/kg/injection, schedule: Q04DX002 (ip), vehicle: other 90 % of control | dose: 100.0 mg/kg/injection, schedule: Q04DX002 (ip), vehicle: other 86 % of control

C=C1C(=O)OC2CCCCCCC12 (stereo not drawn)
inactive: [1] 102 % of control | [2] 97 % of control | [3] 100 % of control

O=S(=O)(c1ccc(N2CCOCC2)cc1)c1ccnc2cc(Cl)ccc12
inactive: dose: 100.0 mg/kg/injection, schedule: Q01DX001 (ip), vehicle: saline with Tween-80 93 % of control | [4] 89 % of control | dose: 200.0 mg/kg/injection, schedule: Q01DX001 (ip), vehicle: saline with Tween-80 101 % of control | dose: 400.0 mg/kg/injection, schedule: Q01DX001 (ip), vehicle: saline with Tween-80 87 % of control

O=C(O)/C=N/NS(=O)(=O)Cc1ccccc1
inactive: dose: 12.5 mg/kg/injection, schedule: Q04DX003 (ip), vehicle: other 102 % of control | dose: 25.0 mg/kg/injection, schedule: Q04DX003 (ip), vehicle: other 113 % of control | dose: 50.0 mg/kg/injection, schedule: Q04DX003 (ip), vehicle: other 117 % of control | dose: 100.0 mg/kg/injection, schedule: Q04DX003 (ip), vehicle: other 117 % of control | dose: 200.0 mg/kg/injection, schedule: Q04DX003 (ip), vehicle: other 122 % of control | dose: 400.0 mg/kg/injection, schedule: Q04DX003 (ip), vehicle: other 111 % of control

NC(CS(=O)c1ccc([N+](=O)[O-])cc1Cl)C(=O)O (stereo not drawn)
inactive: [4] 96 % of control

CC(N)(CCO)C(=O)O (stereo not drawn)
inactive: dose: 100.0 mg/kg/injection, schedule: Q01DX009 (ip), vehicle: saline sonified 97 % of control | [5] 101 % of control | dose: 200.0 mg/kg/injection, schedule: Q01DX009 (ip), vehicle: saline sonified 104 % of control | [6] 101 % of control | dose: 400.0 mg/kg/injection, schedule: Q01DX009 (ip), vehicle: saline sonified 103 % of control | [7] 98 % of control

CN(C)C(=O)c1cccc(COc2ccc(N)cc2Cl)c1
inactive: [1] 113 % of control | [4] 90 % of control | [2] 104 % of control | [8] 93 % of control | [3] 105 % of control | [6] 87 % of control | [9] 95 % of control | [7] 89 % of control

CN(C)OC(=O)Nc1ccc([N+](=O)[O-])cc1
inactive: [10] 97 % of control | [11] 112 % of control | dose: 400.0 mg/kg/injection, schedule: Q04DX002 (ip), vehicle: saline with Tween-80 108 % of control

CCCC(=O)Nc1ccc([N+](=O)[O-])cc1OC
inactive: [5] 96 % of control | [6] 102 % of control | [7] 104 % of control

N#CC(C#N)=C1CCNc2ccccc21
inactive: [4] 96 % of control | [5] 101 % of control | [8] 94 % of control | [6] 103 % of control | [9] 90 % of control | [7] 97 % of control

Nc1cccc(S(=O)(=O)NNc2cc(Cl)ccc2Cl)c1
inactive: [5] 102 % of control | [6] 96 % of control | [7] 95 % of control

NC(=S)c1ccc(C(N)=S)cc1
inactive: dose: 100.0 mg/kg/injection, schedule: Q01DX001 (ip), vehicle: Klucel (hydroxypropylcellulose) (HPC) 89 % of control | [4] 94 % of control | [5] 97 % of control | dose: 200.0 mg/kg/injection, schedule: Q01DX001 (ip), vehicle: Klucel (hydroxypropylcellulose) (HPC) 89 % of control | [8] 93 % of control | [6] 97 % of control | [9] 90 % of control | [7] 98 % of control

N#CCc1ccc(N=Nc2c(N)nc(N)[nH]c2=O)cc1
inactive: [4] 99 % of control | [8] 96 % of control | [9] 87 % of control

CC1=C(CCC#N)C(=O)C(CCC#N)C(C)(C)C1 (stereo not drawn)
inactive: [10] 94 % of control | [11] 89 % of control

CCOC(=O)c1ccc2c(c1)Cc1cc(N)ccc1-2
inactive: dose: 100.0 mg/kg/injection, schedule: Q01DX001 (ip), vehicle: carboxymethylcellulose (CMC) 98 % of control | dose: 200.0 mg/kg/injection, schedule: Q01DX001 (ip), vehicle: carboxymethylcellulose (CMC) 95 % of control

C1CC[N-]CC1.Oc1ccccc1C=NCCN=Cc1ccccc1O.[Co]
inactive: dose: 1.56 mg/kg/injection, schedule: Q04DX002 (ip), vehicle: saline with Tween-80 109 % of control | dose: 3.13 mg/kg/injection, schedule: Q04DX002 (ip), vehicle: saline with Tween-80 98 % of control

COc1cc2cc[n+]3c(C)c4ccc(OC)c(OC)c4cc3c2cc1OC (tested in a mixture with another compound)
inactive: dose: 5.0 mg/kg/injection, schedule: Q01DX009 (ip), vehicle: saline 108 % of control | dose: 60.0 mg/kg/injection, schedule: Q01DX009 (ip), vehicle: saline 121 % of control

OCc1ccccc1OC1OC(CO)C(O)C(O)C1O (stereo not drawn)
inactive: dose: 50.0 mg/kg/injection, schedule: Q01DX009 (ip), vehicle: Klucel (hydroxypropylcellulose) (HPC) 96 % of control | dose: 100.0 mg/kg/injection, schedule: Q01DX009 (ip), vehicle: Klucel (hydroxypropylcellulose) (HPC) 101 % of control | dose: 200.0 mg/kg/injection, schedule: Q01DX009 (ip), vehicle: Klucel (hydroxypropylcellulose) (HPC) 108 % of control

COc1cc(/C=N/Nc2ccc([N+](=O)[O-])cc2)cc(OC)c1OC
inactive: [4] 97 % of control | [8] 94 % of control | [9] 98 % of control

COC(=O)C(CCSC)NC(=O)C(C)NC(=O)OCc1ccccc1 (stereo not drawn)
inactive: [4] 98 % of control | [8] 95 % of control | [9] 95 % of control
